{"source": "patent US7683055B2", "about": "“Lanthionine-related compounds for the treatment of inflammatory diseases” (Oklahoma Medical Research Foundation, priority 2006, dated 2010)", "key": {"EOC-20 microglial cells": {"system": "EOC-20 microglial cells", "experiment": "PGE2 production in TNFα+IFNγ-stimulated EOC-20 microglial cells", "assay_type": "cell-based, mouse", "conditions": "stimulated by TNFα+IFNγ"}, "HT4 cells": {"system": "HT4 cells", "experiment": "glutamate toxicity in HT4 cells (LDH leakage)", "assay_type": "cell-based", "experimental": "FIG. 13. (R)-LK protects HT4 cells against excitotoxicity. Determination of cell viability: HT4 cells were seeded in 6 well plates (1×10^7 cell/well). After 24 h, cell media was changed and (R)-LK (in DMSO) was used for 1 h prior to glutamate challenge. Powdered (R)-LK was dissolved in DMSO just before use. The viability of cells in culture was assessed by measuring the leakage of lactate dehydrogenase (LDH) from cells to media 18-24 h following glutamate treatment using the in vitro toxicology assay kit from Sigma Chemical Co. (St. Louis, Mo., USA). LDH leakage was determined using the following equation: % of total LDH leaked=(LDH activity in the cell culture media/total LDH activity) where total LDH activity=LDH activity in cell monolayer+LDH activity of detached cells+LDH activity in the cell culture media.\nFIG. 14. (R)-LKE1 protects HT4 cells against excitotoxicity. […] The viability of cells in culture was assessed by measuring the leakage of lactate dehydrogenase (LDH) from cells to media 18-24 h following glutamate treatment using the in vitro toxicology assay kit from Sigma Chemical Co. (St. Louis, Mo., USA). LDH leakage was determined using the following equation: % of total LDH leaked=(LDH activity in the cell culture media/total LDH activity) where total LDH activity=LDH activity in cell monolayer+LDH activity of detached cells+LDH activity in the cell culture media. […]"}, "[1]": {"system": "mice treated with E. coli LPS 0127:B8", "experiment": "LPS sepsis mouse model, viability", "assay_type": "in vivo", "conditions": "for Dead/alive: 40 mg/kg LPS + 100 mg/kg i.p. daily", "experimental": "Six mice were treated with 40 mg/kg E. coli LPS 0127:B8 and co-treated with 100 mg/kg (R)-LKE1 i.p., daily. Viability was compared to a control group, receiving only LPS."}, "human PB monocytes": {"system": "human PB monocytes", "experiment": "intracellular TNFα in human peripheral blood monocytes by flow cytometry", "assay_type": "cell-based", "description": "Identification of TNFα positive monocytes in peripheral blood by flow cytometry: PB monocytes expressing TNF in response to LPS or PG can be identified and counted using flow cytometry with fluorescent antibodies to stain TNFα. To identify the percentage of monocytes expressing TNFα, PB was stimulated with LPS or PG, stained for surface markers to distinguish monocytes from other leukocytes, and stained for intracellular TNFα to identify monocytes expressing TNFα. The percentage of monocytes positive for TNFα was compared among samples stimulated with LPS, PG, with and without pretreatment with (R)-LKE1, and non-stimulated samples.\nThe fluorescent antibodies used to identify monocytes surface markers were anti-human CD14-phycoerythrin (PE) and andtiCD16b-fluorescein isothyocyanate (FITC), based on staining intensity for each marker. Monocytes are positive for CD14 and negative for CD16b. This method of separating monocytes from neutrophils was confirmed by sorting cells based on CD14/CD16b intensity, preparing slides, staining with May-Grunwald Giemsa and confirming by morphology.\nFor analysis of CD14 positive, CD16b negative cells we used dot plots. We first excluded lymphocytes from the analysis by their forward scatter (FSC) and side scatter (SSC) properties, drawing a monocyte/neutrophil gate to exclude lymphocytes (not shown). We then identified CD14+, (y-axis) CD16b− (x-axis) cells by comparison with an unstained sample.\nA third dye, PE-Cye7 was used for intracellular cytokine staining of TNFα. The TNFα positive monocytes were identified on a second dot plot of SSC vs. TNFα PE-Cye7 for monocytes only. Cells were counted as positive for TNFα expression if the intensity of PE-Cye7 was greater than in the non-stimulated control. The percent of TNFα positive monocytes was calculated using number positive/total number of monocytes.\nPB, heparinized, was diluted 1:3 with DMEM. Diluted blood was placed in 1.0 ml aliquots into wells of a non tissue culture plate. PB was pre-incubated at 37° C. for one hour with LKE (1 mM) or the diluent DMSO (10 μl). […]"}}}
{"molecule": "CCOC(=O)[C@@H]1CSCC(C(=O)O)=N1", "note": "[(R)-LKE1]", "values": [{"measurement": "suppression of PGE2 production", "setting": "EOC-20 microglial cells", "value": "does not to suppress prostaglandin E2 (PGE2) production"}, {"measurement": "glutamate toxicity (LDH release)", "setting": "HT4 cells", "value": "significantly diminished glutamate toxicity"}, {"measurement": "Dead/alive", "setting": "[1]; 0 h", "value": "0/6"}, {"measurement": "Dead/alive", "setting": "[1]; 18 h", "value": "2/4"}, {"measurement": "Dead/alive", "setting": "[1]; 36 h", "value": "3/3"}, {"measurement": "Dead/alive", "setting": "[1]; 48 h", "value": "4/2"}, {"measurement": "Dead/alive", "setting": "[1]; 72 h", "value": "4/2"}, {"measurement": "chance of surviving the LPS model conditions", "setting": "[1]; co-treated", "value": "higher chance of surviving"}, {"measurement": "percent monocytes staining positively for TNFα", "setting": "human PB monocytes; 1 mM pre-incubation, PG 10 ug/ml", "value": 0.76, "unit": "%"}, {"measurement": "percent monocytes staining positively for TNFα", "setting": "human PB monocytes; 1 mM pre-incubation, Ultra Pure LPS 1 μg/ml", "value": 25.9, "unit": "%"}, {"measurement": "percent monocytes staining positively for TNFα", "setting": "human PB monocytes; 1 mM, no stimulus", "value": 0.96, "unit": "%"}]}
